Laboratory results from patent publication US12565473B2, “Coating composition” (priority 2020, dated 2026).

Legend:
[1] = tested on: mouse embryonic stem (mES) reporter cell lines; details: Bscl2 and Rtkn, absence and presence of S9
[2] = tested on: Rtkn; test: ToxTracker genotoxicity assay, Rtkn-GFP reporter induction
[3] = tested on: Bscl2; test: ToxTracker genotoxicity assay, Bscl2-GFP reporter induction
[4] = with S9 rat liver extract, 3 h exposure and 24 h recovery, at 10% cytotoxicity
[5] = with S9 rat liver extract, 3 h exposure and 24 h recovery, at 25% cytotoxicity
[6] = with S9 rat liver extract, 3 h exposure and 24 h recovery, at 50% cytotoxicity
[7] = without S9 rat liver extract, 24 h exposure, at 10% cytotoxicity
[8] = without S9 rat liver extract, 24 h exposure, at 25% cytotoxicity
[9] = without S9 rat liver extract, 24 h exposure, at 50% cytotoxicity

| SMILES | Genotoxicity test result (overall conclusion) [1] | Rtkn GFP reporter induction level [2, 4] | Rtkn GFP reporter induction level [2, 5] | Rtkn GFP reporter induction level [2, 6] | Rtkn GFP reporter induction level [2, 7] | Rtkn GFP reporter induction level [2, 8] | Rtkn GFP reporter induction level [2, 9] | Bscl 2 GFP reporter induction level [3, 4] | Bscl 2 GFP reporter induction level [3, 5] | Bscl 2 GFP reporter induction level [3, 6] | Bscl 2 GFP reporter induction level [3, 7] | Bscl 2 GFP reporter induction level [3, 8] | Bscl 2 GFP reporter induction level [3, 9] |
| --- | --- | --- | --- | --- | --- | --- | --- | --- | --- | --- | --- | --- | --- |
| CCCCOCC(CN1CC1C)OC(=O)NCCCCCCn1c(=O)n(CCCCCCNC(=O)OC(COCCCC)CN2CC2C)c(=O)n(CCCCCCNC(=O)OC(COCCCC)CN2CC2C)c1=O (centres unmarked) [Composition 21] | non-genotoxic | 1.1 | 1.0 | 0.9 | 1.1 | 1.0 | 0.9 | 1.0 | 0.9 | 0.7 | 1.1 | 1.1 | 0.9 |
| CCCCOCC(CN1CC1C)OC(=O)NCCCCCCn1c(=O)n(CCCCCCNC(=O)OC(COCCCC)CN2CC2C)c(=O)n(CCCCCCNC(=O)OC(COCCCC)CN2CC2C)c1=O (centres unmarked) [Composition 1] | non-genotoxic | 0.9 | 0.8 | 0.6 | 0.8 | 0.8 | 0.6 | 1.0 | 1.0 | 0.9 | 1.1 | 1.1 | 1.1 |
